Here are results for two compounds from patent US20260137710A1, “PHARMACEUTICAL USE OF NUCLEOSIDE COMPOUND” (priority 2022, published 2026).

One series is described as follows: in vitro. The note with it: human.
In another series the test system is Monkeypox virus. Description: microbe, parasite or virus in culture. As to conditions: for EC50: Monkeypox virus, HFF-1, 96 h. In kind it is cell-based.
In a further series the test system is Vaccinia VP13. Description: microbe, parasite or virus in culture. The format is cell-based, Vaccinia virus. As to conditions: for EC50: Orthopoxvirus vaccinia, HFF-1, 96 h.
Another series relates to Smallpox virus. Briefly: microbe, parasite or virus in culture. In kind it is cell-based. As to conditions: for EC50: Variola virus, HFF-1, 96 h.
The next series deals with Cowpox virus. Description: microbe, parasite or virus in culture. In kind it is cell-based. The note with it: for EC50: Cowpox virus, HFF-1, 96 h.

In “in vitro”, `[N-]=[N+]=NC1(CO)OC(n2ccc(N)nc2=O)C(F)C1O` (centres unmarked) [Compound 1, Azvudine] had a CC50 of over 10000 nM. Further, in the series on Monkeypox virus, the “activity to inhibit monkeypox virus (in words)” value is listed as “significant inhibitory effect” and the EC50 was determined as 320 nM. In the series with Vaccinia VP13, the “activity to inhibit vaccinia virus (in words)” value is listed as “significant inhibitory effect” and it took 570 nM to reach a half-maximal effect (EC50). Besides, in the series with Smallpox virus, the “activity to inhibit smallpox virus (in words)” value is “significant inhibitory effect” and the EC50 was determined as 1200 nM. For the same compound, in the series with Cowpox virus, the “activity to inhibit cowpox virus (in words)” value is given as “significant inhibitory effect” and the response was half-maximal at 750 nM (EC50).

`O=C(NN1C(=O)[C@@H]2[C@@H]3C=C[C@@H]([C@H]4C[C@@H]34)[C@@H]2C1=O)c1ccc(C(F)(F)F)cc1` [ST-246, reference compound] returned a CC50 in “in vitro” of over 100000 nM. In addition, the EC50 worked out at 30 nM in the series on Monkeypox virus, 40 nM in the series on Vaccinia VP13, 70 nM in the series with Smallpox virus and 50 nM with Cowpox virus.
